In ChEMBL document CHEMBL1201862, “PubChem BioAssay data set” (2004):
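Grown in 96-well plates, cells were treated for 48 hours with each compound at five concentrations. Insufficient inhibition: endpoint recorded as highest concentration tested. GI50: concentration for 50% inhibition of growth.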 Calls of active or inactive are those of the source. Cut-off read from the data, not from the text of the source: active = GI50 up to about 1.1 µM and inactive = higher.

Tests used:
Assay in all cases: DTP human tumour cell line panel, 48 h
U-251 = tested on: U-251
IGROV-1 = tested on: IGROV-1
COLO 205 = tested on: COLO 205
KM12 = tested on: KM12
UACC-62 = tested on: UACC-62
OVCAR-4 = tested on: OVCAR-4
A549 = tested on: A549
SK-MEL-28 = tested on: SK-MEL-28
SK-MEL-2 = tested on: SK-MEL-2
ACHN = tested on: ACHN
HOP-62 = tested on: HOP-62
OVCAR-5 = tested on: OVCAR-5
SNB-75 = tested on: SNB-75
NCI-H522 = tested on: NCI-H522
MCF7 = tested on: MCF7
NCI-H460 = tested on: NCI-H460
SK-MEL-5 = tested on: SK-MEL-5
Malme-3M = tested on: Malme-3M
A498 = tested on: A498
NCI-H226 = tested on: NCI-H226

| SMILES | GI50 (U-251) | GI50 (IGROV-1) | GI50 (COLO 205) | GI50 (KM12) | GI50 (UACC-62) | GI50 (OVCAR-4) | GI50 (A549) | GI50 (SK-MEL-28) | GI50 (SK-MEL-2) | GI50 (ACHN) | GI50 (HOP-62) | GI50 (OVCAR-5) | GI50 (SNB-75) | GI50 (NCI-H522) | GI50 (MCF7) | GI50 (NCI-H460) | GI50 (SK-MEL-5) | GI50 (Malme-3M) | GI50 (A498) | GI50 (NCI-H226) |
| --- | --- | --- | --- | --- | --- | --- | --- | --- | --- | --- | --- | --- | --- | --- | --- | --- | --- | --- | --- | --- |
| C=CCNC1=C2C[C@@H](C)C[C@@H](OC)[C@H](OC(=O)CCN)[C@H](C)/C=C(\C)[C@@H](OC(N)=O)[C@H](OC)/C=C\C=C(/C)C(=O)NC(=CC1=O)C2=O | 5.09 µM (inactive) | 4.74 µM (inactive) | 0.718 µM (active) | 1.79 µM (inactive) | 2.9 µM (inactive) | 8.93 µM (inactive) | 3.4 µM (inactive) | 14.5 µM (inactive) | 1.9 µM (inactive) | 12.6 µM (inactive) | 3.53 µM (inactive) | 10.8 µM (inactive) | 3.18 µM (inactive) | 5.3 µM (inactive) | 0.703 µM (active) | 2.77 µM (inactive) | 4.12 µM (inactive) | 2.67 µM (inactive) | 3.61 µM (inactive) |  |
| O=C1CCC(=O)N1CNc1ccc2c(c1)S(=O)(=O)c1ccccc1O2 | > 100 µM (inactive) | > 100 µM (inactive) | > 100 µM (inactive) | > 100 µM (inactive) | > 100 µM (inactive) | > 100 µM (inactive) | > 100 µM (inactive) | > 100 µM (inactive) | > 100 µM (inactive) | > 100 µM (inactive) | > 100 µM (inactive) | > 100 µM (inactive) |  | > 100 µM (inactive) | > 100 µM (inactive) |  | > 100 µM (inactive) | > 100 µM (inactive) | > 100 µM (inactive) | > 100 µM (inactive) |
| O=C1C[C@H](CCC(=O)OCc2ccccc2)NC(=O)C[C@H](CCC(=O)OCc2ccccc2)NC(=O)C[C@H](CCC(=O)OCc2ccccc2)N1 | 5.24 µM (inactive) | 50.2 µM (inactive) | > 100 µM (inactive) | > 100 µM (inactive) | 88.9 µM (inactive) | > 100 µM (inactive) | > 100 µM (inactive) | > 100 µM (inactive) | 17.1 µM (inactive) | 17.1 µM (inactive) | 16.2 µM (inactive) | > 100 µM (inactive) | 2.22 µM (inactive) | > 100 µM (inactive) | > 100 µM (inactive) | > 100 µM (inactive) | > 100 µM (inactive) | > 100 µM (inactive) | 7.57 µM (inactive) | > 100 µM (inactive) |
| O=C1C(=Cc2ccccc2O)N=C(c2ccccc2)N1n1c(-c2ccccc2)nc2ccccc2c1=O |  | 34.4 µM (inactive) | 35.7 µM (inactive) | 30.3 µM (inactive) | 33.7 µM (inactive) |  | 33.6 µM (inactive) | 33.8 µM (inactive) |  | 29.5 µM (inactive) | 31.3 µM (inactive) |  | 23.4 µM (inactive) | 33.1 µM (inactive) | 17.2 µM (inactive) | 29.8 µM (inactive) | 19.1 µM (inactive) | 45.7 µM (inactive) | 21.5 µM (inactive) | 31.6 µM (inactive) |
| C[C@H]1/C(=C/C(=O)OCCN(C)C)CC[C@H]2[C@H]1C(=O)C[C@H]1C(C)(C)[C@@H](O)CC[C@]21C | > 100 µM (inactive) | > 100 µM (inactive) | > 100 µM (inactive) | > 100 µM (inactive) | > 100 µM (inactive) | > 100 µM (inactive) | > 100 µM (inactive) | > 100 µM (inactive) | > 100 µM (inactive) | > 100 µM (inactive) | > 100 µM (inactive) | > 100 µM (inactive) |  | > 100 µM (inactive) | > 100 µM (inactive) | > 100 µM (inactive) | > 100 µM (inactive) | > 100 µM (inactive) | > 100 µM (inactive) | 22.5 µM (inactive) |
| COc1ccc2c(c1)c1c(n2CCN2CCOCC2)-c2cccc(OC)c2CC1 | 40.1 µM (inactive) | 43.1 µM (inactive) | 15.2 µM (inactive) | 20.4 µM (inactive) | 29.6 µM (inactive) | > 100 µM (inactive) | 26.2 µM (inactive) | 54.1 µM (inactive) | 22.3 µM (inactive) | 37 µM (inactive) | 45.6 µM (inactive) | 55.2 µM (inactive) |  | 20.2 µM (inactive) | 23.5 µM (inactive) | 38.9 µM (inactive) | 41.6 µM (inactive) | 16.9 µM (inactive) | 26.6 µM (inactive) | 24.4 µM (inactive) |
| O=C(Nc1ccc2[nH]c(C(=O)N3CC(CCl)c4c3cc([N+](=O)[O-])c3ccccc43)cc2c1)Nc1ccc2[nH]c(C(=O)N3CC(CCl)c4c3cc([N+](=O)[O-])c3ccccc43)cc2c1 (stereo unspecified) | > 100 µM (inactive) |  | > 100 µM (inactive) | > 100 µM (inactive) | > 100 µM (inactive) | > 100 µM (inactive) | > 100 µM (inactive) | > 100 µM (inactive) | > 100 µM (inactive) | > 100 µM (inactive) | > 100 µM (inactive) | > 100 µM (inactive) | > 100 µM (inactive) | > 100 µM (inactive) | > 100 µM (inactive) | > 100 µM (inactive) | > 100 µM (inactive) | > 100 µM (inactive) | > 100 µM (inactive) | > 100 µM (inactive) |
| NC(=O)NC(=O)c1cnccn1 | > 100 µM (inactive) |  | > 10 µM (inactive) | > 100 µM (inactive) | > 100 µM (inactive) | > 100 µM (inactive) | > 100 µM (inactive) | > 100 µM (inactive) | > 100 µM (inactive) | > 100 µM (inactive) | > 100 µM (inactive) | > 100 µM (inactive) |  | > 100 µM (inactive) | > 100 µM (inactive) | > 100 µM (inactive) | > 10 µM (inactive) | > 100 µM (inactive) | > 100 µM (inactive) | 54.1 µM (inactive) |
| CC1=NC(=Cc2ccc(Cl)cc2)C(=O)N1n1c(-c2ccccc2)nc2ccccc2c1=O |  | 31.6 µM (inactive) | 32.4 µM (inactive) | 36.4 µM (inactive) | 33.2 µM (inactive) |  | 39.8 µM (inactive) | 51.4 µM (inactive) |  | 22.2 µM (inactive) | 47.2 µM (inactive) |  | 38.6 µM (inactive) | 6.92 µM (inactive) | 28.2 µM (inactive) | 23 µM (inactive) | 36.7 µM (inactive) | 33.2 µM (inactive) | 24.6 µM (inactive) | > 100 µM (inactive) |
| CC(=O)OCC1OC(c2nnc(C)o2)=CC(OC(C)=O)C1OC(C)=O (stereo unspecified) | > 100 µM (inactive) | > 100 µM (inactive) | > 100 µM (inactive) | > 100 µM (inactive) |  | > 100 µM (inactive) | > 100 µM (inactive) | > 100 µM (inactive) |  | > 100 µM (inactive) | > 100 µM (inactive) | > 100 µM (inactive) | > 100 µM (inactive) | > 100 µM (inactive) | > 100 µM (inactive) | > 100 µM (inactive) | > 100 µM (inactive) | > 100 µM (inactive) | > 100 µM (inactive) | > 100 µM (inactive) |
| c1ccc(-c2cc(-c3cc(-c4ccccc4)n(-c4ccccc4)n3)nn2-c2ccccc2)cc1 | > 100 µM (inactive) | > 100 µM (inactive) | > 100 µM (inactive) | > 100 µM (inactive) | > 100 µM (inactive) | 94.8 µM (inactive) | > 100 µM (inactive) |  | > 100 µM (inactive) | > 100 µM (inactive) | 35.7 µM (inactive) | > 100 µM (inactive) | 56.9 µM (inactive) | > 100 µM (inactive) | > 100 µM (inactive) | > 100 µM (inactive) | > 100 µM (inactive) | > 100 µM (inactive) | > 100 µM (inactive) | > 100 µM (inactive) |
| CC(=O)OCc1cn(S(=O)(=O)c2ccc(C)cc2)cn1 | > 100 µM (inactive) | > 100 µM (inactive) | 73.6 µM (inactive) |  | 75.2 µM (inactive) | > 100 µM (inactive) | 84.5 µM (inactive) | > 100 µM (inactive) |  | > 100 µM (inactive) | > 100 µM (inactive) |  | > 100 µM (inactive) | 64 µM (inactive) | 25.2 µM (inactive) | 30.1 µM (inactive) | 46.9 µM (inactive) | > 100 µM (inactive) | > 100 µM (inactive) | > 100 µM (inactive) |
| COc1ccc(-c2cc(=O)c3c(OC)c(OC)c(OC)c(OC)c3o2)c(OC)c1 | 30.8 µM (inactive) | 36.9 µM (inactive) | 17.1 µM (inactive) |  | 16 µM (inactive) | 28.3 µM (inactive) | 32.6 µM (inactive) | 42.9 µM (inactive) | 19.1 µM (inactive) | 24.8 µM (inactive) | 26.7 µM (inactive) | 70.8 µM (inactive) | 15.6 µM (inactive) | 12.9 µM (inactive) | 20.5 µM (inactive) | 32.1 µM (inactive) | 16 µM (inactive) | 30.5 µM (inactive) | 21.6 µM (inactive) | 31 µM (inactive) |
| COc1cccc2c1OC(c1ccc(C#N)cc1)C([N+](=O)[O-])=C2 (stereo unspecified) | 1.86 µM (inactive) | 1.92 µM (inactive) | 1.74 µM (inactive) |  | 1.6 µM (inactive) | 1.68 µM (inactive) | 2.56 µM (inactive) | 2.28 µM (inactive) | 2.01 µM (inactive) | 1.77 µM (inactive) | 3.21 µM (inactive) | 1.95 µM (inactive) | 2.47 µM (inactive) | 0.214 µM (active) | 1.5 µM (inactive) | 2.22 µM (inactive) | 1.53 µM (inactive) | 1.61 µM (inactive) | 1.84 µM (inactive) | 2.98 µM (inactive) |
